Experimental data taken from patent US7348425B2, “Inhibitors of HCV replication” (Bristol-Myers Squibb Company, priority 2004, dated 2008).
pEC50, pIC50: −log10 of the molar value.

Assays:
[1] = target: T1, HCV NS5B RdRp genotype 1b (Hepatitis C virus genotype 1b, UniProt Q9WMX2); experiment: Modified HCV NS5B RdRp enzyme assay (with preincubation); format: biochemical
T1 construct: The protein was expressed with an 18 amino acid C-terminal truncation to enhance the solubility; made in house; host or cells: E. coli BL21 (DE3), pET21a
Procedure, shortened: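 C-terminally truncated (Δ18) genotype 1b NS5B from E. coli was preincubated (14 nM) with compound, then reaction started with polyA template (0.2 nM), ³H-UTP (0.29 μM) and dT12 primer (20 nM) precaptured on SPA beads. Reaction ran 4 h at 30 °C in pH 7.5 Hepes buffer with 2% DMSO. IC50 came from seven concentrations.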

HCV replicon = HCV replicon FRET assay; format: cell-based; conditions: Hepatitis C virus; FRET assay; read-out: EC50
Procedure, shortened: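 Replicon cells (± Renilla luciferase reporter) incubated with titrated compound at 37 °C; NS3 protease activity read by FRET peptide cleavage (20 uM EDANS/DABCYL substrate, 340/490 nm kinetic) or luciferase.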

[2] = modified method (with preincubation)

T1 sequence (Q9WMX2 2420-2992): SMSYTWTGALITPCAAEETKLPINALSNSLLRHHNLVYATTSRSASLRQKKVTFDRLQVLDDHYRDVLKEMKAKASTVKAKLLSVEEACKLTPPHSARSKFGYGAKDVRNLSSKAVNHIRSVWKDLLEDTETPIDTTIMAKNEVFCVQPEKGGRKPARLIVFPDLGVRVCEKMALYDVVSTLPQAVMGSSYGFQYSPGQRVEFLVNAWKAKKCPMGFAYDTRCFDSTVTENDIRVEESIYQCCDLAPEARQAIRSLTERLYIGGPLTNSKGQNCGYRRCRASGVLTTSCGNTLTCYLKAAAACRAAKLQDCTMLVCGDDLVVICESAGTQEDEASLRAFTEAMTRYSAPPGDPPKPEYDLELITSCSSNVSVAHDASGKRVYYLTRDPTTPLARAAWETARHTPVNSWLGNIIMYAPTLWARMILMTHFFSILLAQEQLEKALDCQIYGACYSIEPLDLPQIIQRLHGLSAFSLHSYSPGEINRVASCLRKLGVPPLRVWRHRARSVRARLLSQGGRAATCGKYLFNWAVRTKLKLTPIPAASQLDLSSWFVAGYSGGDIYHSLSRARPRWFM

Structure (SMILES) | pIC50 [1, 2] | pEC50 (HCV replicon) | pIC50 ([1]; preincubation protocol)
CCOC(=O)/C=C/c1ccc(NC(=O)C2(NC(=O)c3ccc4c(C5CCCCC5)c5n(c4c3)CCCc3cc(O)ccc3-5)CCCC2)cc1 | < 6.00 | 6.00 to 8.00 | 
O=C(O)/C=C/c1ccc(NC(=O)C2(NC(=O)c3ccc4c(C5CCCCC5)c5n(c4c3)CCCc3cc(O)ccc3-5)CCCC2)cc1 | 6.00 to 7.70 | 6.00 to 8.00 | 
O=C1Cn2c(c(C3CCCCC3)c3ccc(C(=O)NC4(C(=O)Nc5ncc(-c6ccc(C(=O)O)cc6)s5)CCCC4)cc32)-c2ccccc2N1 | 6.00 to 7.70 | 6.00 to 8.00 | 
O=C1Cn2c(c(C3CCCCC3)c3ccc(C(=O)NC4(C(=O)Nc5nccs5)CCCC4)cc32)-c2ccccc2N1 | 6.00 to 7.70 | 6.00 to 8.00 | 
CN(C)CCNC(=O)C1=Cc2ccccc2-c2c(C3CCCCC3)c3ccc(C(=O)O)cc3n2C1 | 6.00 to 7.70 | 6.00 to 8.00 | 
O=C(O)/C=C/c1ccc(NC(=O)C2(NC(=O)c3ccc4c(C5CCCCC5)c5n(c4c3)CCCc3nccnc3-5)CCCC2)cc1 | 6.00 to 7.70 | > 7.00 | 
CN(C)CCNC(=O)C1=Cc2ccccc2-c2c(C3CCCCC3)c3ccc(C(=O)NC4(C(=O)Nc5ccc(/C=C/C(=O)O)cc5)CCCC4)cc3n2C1 | 6.00 to 7.70 | 6.00 to 8.00 | 
CCOC(=O)c1cc2cc(NC(=O)C3(NC(=O)c4ccc5c(C6CCCCC6)c6n(c5c4)CC(=O)Nc4ccccc4-6)CCCC3)ccc2n1C | 6.00 to 7.70 | 6.00 to 8.00 | 
Cn1c(C(=O)O)cc2cc(NC(=O)C3(NC(=O)c4ccc5c(C6CCCCC6)c6n(c5c4)CCNc4ccccc4-6)CCCC3)ccc21 | 6.00 to 7.70 | 6.00 to 8.00 | 
O=C(O)c1ccc2c(c1)C1CCN(C(=O)N3CCOCC3)c3ccccc3C1=C2C1CCCCC1 (stereo not drawn) | < 6.00 | 5.00 to 6.00 | 
CN(C)C(=O)NC(=O)c1ccc2c(C3CCCCC3)c3n(c2c1)CC(C(=O)N1CCOCC1)=Cc1ccccc1-3 | 6.00 to 7.70 | 5.00 to 6.00 | 
CN(C)S(=O)(=O)NC(=O)c1ccc2c(c1)N1C(O)c3cc(OCc4ccccc4)ccc3C1C2 (stereo not drawn) | 6.00 to 7.70 | 6.00 to 8.00 | 
COC(=O)c1ccc2c(C3CCCCC3)c3n(c2c1)CC(C(=O)N1CCOCC1)=C(C)c1ccccc1-3 | < 6.00 | 5.00 to 6.00 | 
CC1=C(C(=O)N2CCOCC2)Cn2c(c(C3CCCCC3)c3ccc(C(=O)O)cc32)-c2ccccc21 | 6.00 to 7.70 | 6.00 to 8.00 | 
COC(=O)c1ccc2c(C3CCCCC3)c3n(c2c1)C(O)c1cc(Cl)ccc1-3 (stereo not drawn) | < 6.00 | 6.00 to 8.00 | 
COc1cc(CNC(=O)c2ccc3c(C4CCCCC4)c4n(c3c2)CC(C(=O)N2CCOCC2)=Cc2ccccc2-4)ccc1O | 6.00 to 7.70 | 6.00 to 8.00 | 
COC(=O)C1=Cc2cc(Cl)ccc2-c2c(C3CCCCC3)c3ccc(C(=O)OC)cc3n2C1 | < 6.00 | 5.00 to 6.00 | 
CCN(CC)C1CCN(C(=O)C2=Cc3ccccc3-c3c(C4CCCCC4)c4ccc(C(=O)NS(=O)(=O)N(C)C)cc4n3C2)C1 (stereo not drawn) | 6.00 to 7.70 | 6.00 to 8.00 | 
CN(C)S(=O)(=O)NC(=O)c1ccc2c(C3CCCCC3)c3n(c2c1)CC(C(=O)N1CCCOCC1)=Cc1ccccc1-3 | 6.00 to 7.70 | 6.00 to 8.00 | 
O=C(O)c1ccc2c(C3CCCCC3)c3n(c2c1)CCN(C(=O)Nc1ccccc1)c1ccccc1-3 | 6.00 to 7.70 | 5.00 to 6.00 | 
O=C(O)c1ccc2c(C3CCCCC3)c3n(c2c1)CCN(C(=O)NC1CCCC1)c1ccccc1-3 | 6.00 to 7.70 | 6.00 to 8.00 | 
CC(C)N(C)C(=O)C1=Cc2ccccc2-c2c(C3CCCCC3)c3ccc(C(=O)NS(=O)(=O)N(C)C)cc3n2C1 | 6.00 to 7.70 | 6.00 to 8.00 | 
CN(CC(O)CO)C(=O)C1=Cc2ccccc2-c2c(C3CCCCC3)c3ccc(C(=O)NS(=O)(=O)N(C)C)cc3n2C1 (stereo not drawn) | 6.00 to 7.70 | 6.00 to 8.00 | 
CC(C)N(C(=O)C1=Cc2ccccc2-c2c(C3CCCCC3)c3ccc(C(=O)NS(=O)(=O)N(C)C)cc3n2C1)C(C)C | 6.00 to 7.70 | 6.00 to 8.00 | 
CCN(CC)C(=O)C1=Cc2ccccc2-c2c(C3CCCCC3)c3ccc(C(=O)NS(=O)(=O)N(C)C)cc3n2C1 | 6.00 to 7.70 | 6.00 to 8.00 | 
COC(=O)C1=Cc2cc(OCc3ccccc3)ccc2-c2c(C3CCCCC3)c3ccc(C(=O)NS(=O)(=O)N(C)C)cc3n2C1 | 6.00 to 7.70 | 6.00 to 8.00 | 

Structure (SMILES) | pIC50 [1, 2] | pEC50 (HCV replicon) | pIC50 ([1]; preincubation protocol)
CC1CN(C(=O)C2=Cc3ccccc3-c3c(C4CCCCC4)c4ccc(C(=O)NS(=O)(=O)N(C)C)cc4n3C2)CC(C)N1 (stereo not drawn) | 6.00 to 7.70 | 6.00 to 8.00 | 
CN(CCO)C(=O)C1=Cc2ccccc2-c2c(C3CCCCC3)c3ccc(C(=O)NS(=O)(=O)N(C)C)cc3n2C1 | 6.00 to 7.70 | 6.00 to 8.00 | 
CN(C)C(=O)N1CCn2c(c(C3CCCCC3)c3ccc(C(=O)NS(=O)(=O)N(C)C)cc32)-c2ccccc21 | 6.00 to 7.70 | 6.00 to 8.00 | 
CC(=O)N1CCn2c(c(C3CCCCC3)c3ccc(C(=O)NS(=O)(=O)N(C)C)cc32)-c2ccccc21 | 6.00 to 7.70 | 6.00 to 8.00 | 
CCOC(=O)N1CCn2c(c(C3CCCCC3)c3ccc(C(=O)NS(=O)(=O)C4CC4)cc32)-c2ccccc21 | 6.00 to 7.70 | 6.00 to 8.00 | 
O=C(NS(=O)(=O)C1CC1)c1ccc2c(C3CCCCC3)c3n(c2c1)CCNc1ccccc1-3 | 6.00 to 7.70 | 6.00 to 8.00 | 
CS(=O)(=O)NC(=O)c1ccc2c(C3CCCCC3)c3n(c2c1)CCNc1ccccc1-3 | 6.00 to 7.70 | 6.00 to 8.00 | 
CC(C)(C)OC(=O)N1CCn2c(c(C3CCCCC3)c3ccc(C(=O)NS(C)(=O)=O)cc32)-c2ccccc21 | 6.00 to 7.70 | 6.00 to 8.00 | 
COc1ccc2c(c1)CC(F)(C(=O)O)Cn1c-2c(C2CCCCC2)c2ccc(C(=O)NS(=O)(=O)N(C)C)cc21 (stereo not drawn) |  | 5.00 to 6.00 | 6.00 to 8.00
COc1ccc2c(c1)CC(F)(C(=O)N1C[C@@H](C)O[C@@H](C)C1)Cn1c-2c(C2CCCCC2)c2ccc(C(=O)NS(=O)(=O)N(C)C)cc21 (stereo partly drawn) |  | 6.00 to 7.30 | 6.00 to 8.00
CN(C)S(=O)(=O)NC(=O)c1ccc2c(C3CCCCC3)c3n(c2c1)CCCN(C(=O)OC(C)(C)C)c1ccccc1-3 |  | 6.00 to 7.30 | 6.00 to 8.00
CN(C)S(=O)(=O)NC(=O)c1ccc2c(C3CCCCC3)c3n(c2c1)CCCNc1ccccc1-3 |  | 6.00 to 7.30 | 6.00 to 8.00
COc1ccc2c(c1)C=C(C(=O)N1CC(C)NC(C)C1)Cn1c-2c(C2CCCCC2)c2ccc(C(=O)NS(=O)(=O)N(C)C)cc21 (stereo not drawn) |  | 6.00 to 7.30 | 6.00 to 8.00
COc1ccc2c(c1)C=C(C(=O)N1CC[C@@H](O)C1)Cn1c-2c(C2CCCCC2)c2ccc(C(=O)NS(=O)(=O)N(C)C)cc21 |  | 6.00 to 7.30 | 6.00 to 8.00
COc1ccc2c(c1)C=C(C(=O)N1CCC[C@H](O)C1)Cn1c-2c(C2CCCCC2)c2ccc(C(=O)NS(=O)(=O)N(C)C)cc21 |  | 6.00 to 7.30 | 6.00 to 8.00
O=C(O)c1ccc2c(C3CCCCC3)c3n(c2c1)C(C(=O)N1CCOCC1)CNc1ccccc1-3 (stereo not drawn) |  | 5.00 to 6.00 | < 6.00
COC(=O)c1ccc2c(C3CCCCC3)c3n(c2c1)CC(CO)=Cc1ccccc1-3 |  | 6.00 to 7.30 | < 6.00
COc1ccc2c(c1)C=C(C(=O)N1[C@H](C)CC[C@H]1C)Cn1c-2c(C2CCCCC2)c2ccc(C(=O)NS(=O)(=O)N(C)C)cc21 |  | 6.00 to 7.30 | 6.00 to 8.00
CCN(C)C(=O)C1=Cc2cc(OC)ccc2-c2c(C3CCCCC3)c3ccc(C(=O)NS(=O)(=O)N(C)C)cc3n2C1 |  | 6.00 to 7.30 | 6.00 to 8.00
C[C@@H]1CN(C(=O)C2=Cc3ccccc3-c3c(C4CCCCC4)c4ccc(C(=O)NC5(C(=O)Nc6ccc(-c7cnco7)cc6)CCCC5)cc4n3C2)C[C@H](C)O1 |  | 6.00 to 7.30 | 6.00 to 8.00
C[C@@H]1CN(C(=O)C2=Cc3ccccc3-c3c(C4CCCCC4)c4ccc(C(=O)NC5(C(=O)Nc6ccc(-n7cncn7)cc6)CCCC5)cc4n3C2)C[C@H](C)O1 |  | 6.00 to 7.30 | 6.00 to 8.00
Cc1cc(CNC(=O)c2ccc3c(C4CCCCC4)c4n(c3c2)CC(C(=O)N2C[C@@H](C)O[C@@H](C)C2)=Cc2ccccc2-4)n[nH]1 |  | 6.00 to 7.30 | 6.00 to 8.00
COc1ccc2c(c1)C=C(C(=O)N1CCOC(CN(C)C)C1)Cn1c-2c(C2CCCCC2)c2ccc(C(=O)NS(=O)(=O)N(C)C)cc21 (stereo not drawn) |  | 6.00 to 7.30 | 6.00 to 8.00
COc1ccc2c(c1O)C(O)n1c-2c(C2CCCCC2)c2ccc(C(=O)NS(=O)(=O)N(C)C)cc21 (stereo not drawn) |  | < 7.00 | 5.00 to 6.00
COc1cc2c(cn1)-c1c(C3CCCCC3)c3ccc(C(=O)NS(=O)(=O)N(C)C)cc3n1CC(C(=O)N1C[C@@H](C)O[C@@H](C)C1)=C2 |  | < 6.00 | 5.00 to 6.00
